PubChem BioAssay AID1963825 (Molecular Pharmacology Branch, DTP, NCI, 2024)
Values joined by “and” are separate entries in the source; they are usually repeats but may differ in a detail not shown here. Equal values may be shown once.

Experiment: Anticancer human tumor 997537-175-T-J1-PDC patient-derived colon adenocarcinoma cell line growth inhibition [POLQ]
Settings: 997537-175-T-J1-PDC complex spheroid viability, combination with POLQ inhibitors; for viability, T/C: stronger effect = lower value
Experimental: Multicellular complex tumor spheroid response to Polymerase (POL) inhibitors (novobiocin, ART-558, RP6685) in combination with a variety of drugs and investigational agents in selected tumor cell lines
The POL inhibitors (novobiocin, ART-558, and RP6685) were evaluated both individually and in combination with standard of care and investigational anticancer small molecules within a complex spheroid model of solid tumors. . Complex spheroids include a stromal component modeled by human endothelial cells (HUVEC) and fibroblasts modeled by human mesenchymal stem cells (MSCs). The concentration ranges selected for each drug and investigational agent were based upon clinically achievable concentrations if the clinical Cmax of the agent was known.
Compounds. The drugs and investigational agents: novobiocin (NSC847541), ART-558 (NSC835418), RP-6685 (NSC848927), peposertib (NSC802822), ceralasertib (NSC780249), elimusertib (NSC800525), camonsertib (NSC841442), AZD-1390 (NSC803789), olaparib (NSC753686), talazoparib (NSC767125), rucaparib (NSC756644), sotorasib (NSC818433), MRTX-1133 (NSC836407), SN-38 (NSC673596), topotecan (NSC609699), epotoside (NSC141540), doxorubicin (NSC123127), gemcitabine (NSC613327), 5-fluorouracil (NSC19893), paclitaxel (NSC125973), vemurafenib (NSC761431), MSA-2 (NSC828583), SN-011 (NSC837082), adavosertib (NSC754352), prexasertib (NSC758257), carboplatin (NSC241240) and oxaliplatin (NSC266046), were obtained from the National Cancer Institute (NCI) Developmental Therapeutics Program Chemical Repository (21). The FDA-approved anticancer drug set is available from the Developmental Therapeutics Program at https://dtp.cancer.gov/organization/dscb/obtaining/. […] The stock solutions were prepared in dimethyl sulfoxide (DMSO, Sigma-Aldrich, St. Louis, MO, cat. D2650), except for the platinum compounds which were prepared in saline (Quality Biological, Gaithersburg, MD, cat. 114-055-101), at 800-fold the tested concentration and stored at -70 degrees C prior to their use. All drugs and investigational agents were tested over a range starting from a high concentration at or near the clinical Cmax and decreasing in half-log increments. If the clinical Cmax for an agent had not been determined, the highest concentration tested was 10 microM, except for SN-38, which was tested at a high concentration of 1 microM.
Cell Culture. All cells were maintained in an incubator at 37 degrees C and 5% CO2 with 95% humidity. The PDC lines were cultured according to standard operating procedures established by the NCI PDMR (https://pdmr.cancer.gov). Table 3 of the manuscript, lists the cell lines along with the number of the three cell types plated to form the mct-spheroids and media for tumor cell growth. After thawing, all PDC lines, except 997537-175-T-J1-PDC and 415267-285-R-J2-PDC, were cultured in Matrigel-coated flasks prepared with a working solution of 1X Ham's F-12 nutrient mix, without supplementation (Thermo Fisher Scientific, cat. 11765054), 100 U/mL penicillin-streptomycin (Thermo Fisher Scientific, cat. 15140122), and 2.5% Matrigel (Corning Inc., Corning, NY, cat. 354248) for the first three passages. The two PDC lines 997537-175-T-J1-PDC and 415267-285-R-J2-PDC were cultured on uncoated flasks. The 857933-349-R-J2-PDC line was cultured in 6C/Colon 1B media containing advanced DMEM/F-12 (Thermo Fisher Scientific, cat. 12634028), 10 mM HEPES (Thermo Fisher Scientific, cat. 15630080), 1X GlutaMAX supplement (Thermo Fisher Scientific, cat. 35050061), 0.1 mg/mL primocin (InvivoGen, San Diego, CA, cat. ant-pm-2), 10% defined fetal bovine serum, heat inactivated (HyClone Laboratories Inc., Logan, UT, cat. SH30070.03HI), 50% L-WRN conditioned media (ATCC, cat. CRL-3276), 1.25 mM N-Acetyl-L-cysteine (Sigma-Aldrich, cat. A9165), 10 mM nicotinamide (Sigma-Aldrich, cat. N0636), 1X B-27 supplement (Thermo Fisher Scientific, cat. 17504044), 1X N-2 supplement (Thermo Fisher Scientific, cat. […]

[1] = curve of first compound, second compound 0.0316 µM
[2] = curve of first compound, second compound 0.1 µM
[3] = curve of first compound, second compound 0.316 µM
[4] = curve of first compound, second compound 1 µM
[5] = curve of first compound, second compound 3.16 µM
[6] = curve of first compound, second compound 10 µM
[7] = second compound 0.0316 µM, first compound 0.0316 µM
[8] = second compound 0.0316 µM, first compound 0.1 µM
[9] = second compound 0.0316 µM, first compound 0.316 µM
[10] = second compound 0.0316 µM, first compound 1 µM
[11] = second compound 0.0316 µM, first compound 3.16 µM
[12] = second compound 0.0316 µM, first compound 10 µM
[13] = second compound 0.1 µM, first compound 0.0316 µM
[14] = second compound 0.1 µM, first compound 0.1 µM
[15] = second compound 0.1 µM, first compound 0.316 µM
[16] = second compound 0.1 µM, first compound 1 µM
[17] = second compound 0.1 µM, first compound 3.16 µM
[18] = second compound 0.1 µM, first compound 10 µM
[19] = second compound 0.316 µM, first compound 0.0316 µM
[20] = second compound 0.316 µM, first compound 0.1 µM
[21] = second compound 0.316 µM, first compound 0.316 µM
[22] = second compound 0.316 µM, first compound 1 µM
[23] = second compound 0.316 µM, first compound 3.16 µM
[24] = second compound 0.316 µM, first compound 10 µM
[25] = second compound 1 µM, first compound 0.0316 µM
[26] = second compound 1 µM, first compound 0.1 µM
[27] = second compound 1 µM, first compound 0.316 µM
[28] = second compound 1 µM, first compound 1 µM
[29] = second compound 1 µM, first compound 3.16 µM
[30] = second compound 1 µM, first compound 10 µM
[31] = second compound 3.16 µM, first compound 0.0316 µM
[32] = second compound 3.16 µM, first compound 0.1 µM
[33] = second compound 3.16 µM, first compound 0.316 µM
[34] = second compound 3.16 µM, first compound 1 µM
[35] = second compound 3.16 µM, first compound 3.16 µM
[36] = second compound 3.16 µM, first compound 10 µM
[37] = second compound 10 µM, first compound 0.0316 µM
[38] = second compound 10 µM, first compound 0.1 µM
[39] = second compound 10 µM, first compound 0.316 µM
[40] = second compound 10 µM, first compound 1 µM
[41] = second compound 10 µM, first compound 3.16 µM
[42] = second compound 10 µM, first compound 10 µM
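Also: luminescence signal used as a surrogate for viable cells; spheroids exposed to drugs for seven days before readout.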

For CNCc1ccc(-c2[nH]c3cc(F)cc4c3c2CCNC4=O)cc1, the viability, T/C (compound 0.0316 µM) was 90.4% and 94.4% and 96.8%, the viability, T/C (compound 0.1 µM) was 96.6% and 93.5% and 90.8% and the viability, T/C (compound 0.316 µM) was 91% and 108% and 106%. The viability, T/C (compound 1 µM) was 98.3% and 93.2% and 88.9%, the viability, T/C (compound 3.16 µM) was 100% and 103% and 99.9% and the viability, T/C (compound 10 µM) was 95% and 98.8% and 89.1%. For the same molecule, the IC50 (curve of compound) was over 10 µM.

CC1COCCN1c1cc(C2(O)CC3CCC(C2)O3)c2cnn(-c3ccn[nH]3)c2n1 (stereo unspecified) + Cc1cccc(N(C)C(=O)C2C(O)CCN2c2nc(C)cc(C(F)(F)F)c2C#N)c1 showed an IC50 [1] of over 10 µM, an IC50 [2] of 3.16 µM and an IC50 [3] of 0.936 µM. The IC50 [4] was over 10 µM, the IC50 [5] was over 10 µM and the IC50 [6] was 3.99 µM. It also gave a viability, T/C [7] of 79.8%, a viability, T/C [8] of 96% and a viability, T/C [9] of 60%. For the same molecule, the viability, T/C [10] was 52.8%, the viability, T/C [11] was 58.3% and the viability, T/C [12] was 39%. For the same molecule, the viability, T/C [13] was 94.8%, the viability, T/C [14] was 94.2% and the viability, T/C [15] was 48.6%. For the same molecule, the viability, T/C [16] was 42.4%, the viability, T/C [17] was 66.4% and the viability, T/C [18] was 53.9%. For the same molecule, the viability, T/C [19] was 76.5%, the viability, T/C [20] was 66.8% and the viability, T/C [21] was 54.8%. The viability, T/C [22] was 45.9%, the viability, T/C [23] was 53.8% and the viability, T/C [24] was 47.6%. The viability, T/C [25] was 86.8%, the viability, T/C [26] was 81.9% and the viability, T/C [27] was 43.2%. For the same molecule, the viability, T/C [28] was 57.3%, the viability, T/C [29] was 81.9% and the viability, T/C [30] was 64.7%. For the same molecule, the viability, T/C [31] was 84.3%, the viability, T/C [32] was 59.9% and the viability, T/C [33] was 62.8%. It also gave a viability, T/C [34] of 54.1%, a viability, T/C [35] of 54.5% and a viability, T/C [36] of 75.8%. It also gave a viability, T/C [37] of 92.3%, a viability, T/C [38] of 69% and a viability, T/C [39] of 61.4%. The viability, T/C [40] was 47.4%, the viability, T/C [41] was 58.1% and the viability, T/C [42] was 44.8%.

With CC1COCCN1c1cc(C2(S(C)(=N)=O)CC2)nc(-c2ccnc3[nH]ccc23)n1 (stereo unspecified) + Cc1cccc(N(C)C(=O)C2C(O)CCN2c2nc(C)cc(C(F)(F)F)c2C#N)c1 the IC50 [1] was 9.37 µM, the IC50 [2] was over 10 µM and the IC50 [3] was 8.26 µM. It also gave an IC50 [4] of 7.19 µM, an IC50 [5] of over 10 µM and an IC50 [6] of over 10 µM. It also gave a viability, T/C [7] of 97.9%, a viability, T/C [8] of 106% and a viability, T/C [9] of 102%. It also gave a viability, T/C [10] of 98.8%, a viability, T/C [11] of 83.6% and a viability, T/C [12] of 47.6%. It also gave a viability, T/C [13] of 97.5%, a viability, T/C [14] of 96.6% and a viability, T/C [15] of 101%. The viability, T/C [16] was 83.6%, the viability, T/C [17] was 63.5% and the viability, T/C [18] was 64.7%. It also gave a viability, T/C [19] of 110%, a viability, T/C [20] of 107% and a viability, T/C [21] of 90.8%. For the same molecule, the viability, T/C [22] was 91.6%, the viability, T/C [23] was 57.9% and the viability, T/C [24] was 49.1%. For the same molecule, the viability, T/C [25] was 106%, the viability, T/C [26] was 104% and the viability, T/C [27] was 80.3%. It also gave a viability, T/C [28] of 78.9%, a viability, T/C [29] of 44.7% and a viability, T/C [30] of 52.7%. It also gave a viability, T/C [31] of 111%, a viability, T/C [32] of 109% and a viability, T/C [33] of 98.5%. It also gave a viability, T/C [34] of 87.3%, a viability, T/C [35] of 78.3% and a viability, T/C [36] of 70.8%. It also gave a viability, T/C [37] of 88.3%, a viability, T/C [38] of 99.8% and a viability, T/C [39] of 86%. The viability, T/C [40] was 92.7%, the viability, T/C [41] was 68.5% and the viability, T/C [42] was 63.5%.
